Reference: the CheMixHub viscosity set

Experiment: xn = mol fraction of the nth substance listed

CC(=O)OC(C)C + C1CCCCC1
viscosity [mPa·s], 101 kPa
Conditions | 298.15 K | 308.15 K
x1 = 0.0846 | 0.8036 | 0.6718
x1 = 0.1126 | 0.7518 | 0.6494
x1 = 0.1665 | 0.705 | 0.612
x1 = 0.2671 | 0.636 | 0.5559
x1 = 0.3555 | 0.594 | 0.5212
x1 = 0.4881 | 0.5485 | 0.4824
x1 = 0.5911 | 0.5241 | 0.462
x1 = 0.6773 | 0.5099 | 0.4512
x1 = 0.7902 | 0.4951 | 0.441
x1 = 0.8873 | 0.4932 | 0.4366
x1 = 0.9593 | 0.4903 | 0.4349
x2 = 0.07507 | – | 0.4324
x2 = 0.2053 | – | 0.4373
x2 = 0.298 | – | 0.4444
x2 = 0.3967 | – | 0.4564
x2 = 0.505 | – | 0.4759
x2 = 0.6014 | – | 0.4989
x2 = 0.714 | – | 0.5351
x2 = 0.7973 | – | 0.5787
x2 = 0.8978 | – | 0.6451

CCCC(=O)O + C1CCCCC1
303.15 K, 101 kPa
Conditions | viscosity [mPa·s]
x2 = 0.101 | 1.196
x2 = 0.1921 | 1.069
x2 = 0.2875 | 0.9914
x2 = 0.3938 | 0.9189
x2 = 0.4993 | 0.867
x2 = 0.591 | 0.8407
x2 = 0.6993 | 0.7948
x2 = 0.8074 | 0.7912
x2 = 0.9011 | 0.7924

CCCC(C)O (configuration not stated) + C1CCCCC1
303.15 K, 101.33 kPa
Conditions | viscosity [mPa·s]
x1 = 0.1049 | 0.874
x1 = 0.2028 | 0.94
x1 = 0.3035 | 1.03
x1 = 0.4031 | 1.151
x1 = 0.5017 | 1.306
x1 = 0.6043 | 1.534
x1 = 0.6903 | 1.772
x1 = 0.801 | 2.116
x1 = 0.9115 | 2.521

CCCCBr + C1CCCCC1
308.15 K, 101 kPa
Conditions | viscosity [mPa·s]
x2 = 0.1017 | 0.5246
x2 = 0.2037 | 0.5305
x2 = 0.3038 | 0.5365
x2 = 0.4015 | 0.5458
x2 = 0.5006 | 0.5596
x2 = 0.5951 | 0.5789
x2 = 0.7004 | 0.6032
x2 = 0.8014 | 0.6338
x2 = 0.899 | 0.6799

CCCCNCCCC + C1CCCCC1
viscosity [mPa·s], 101 kPa
Conditions | 303.15 K | 313.15 K
x1 = 0.01094 | 0.8102 | 0.7072
x1 = 0.02041 | 0.8023 | 0.6959
x1 = 0.02983 | 0.7945 | 0.6867
x1 = 0.03917 | 0.7871 | 0.6761
x1 = 0.04929 | 0.7755 | 0.6665
x1 = 0.05831 | 0.7665 | 0.6583
x1 = 0.06895 | 0.7585 | 0.6494
x1 = 0.07966 | 0.7491 | 0.6406
x1 = 0.08806 | 0.742 | 0.6327
x2 = 0.1011 | 0.749 | –
x2 = 0.2001 | 0.737 | –
x2 = 0.3025 | 0.731 | –
x2 = 0.4034 | 0.728 | –
x2 = 0.4997 | 0.727 | –
x2 = 0.605 | 0.729 | –
x2 = 0.7025 | 0.727 | –
x2 = 0.7989 | 0.743 | –
x2 = 0.8971 | 0.759 | –

COCCO + C1CCCCC1
viscosity [mPa·s], 101 kPa
Conditions | 298.15 K | 308.15 K
x1 = 0.054 | 0.905 | 0.75
x1 = 0.1506 | 0.923 | 0.757
x1 = 0.2513 | 0.95 | 0.773
x1 = 0.3532 | 0.989 | 0.797
x1 = 0.4508 | 1.037 | 0.829
x1 = 0.4955 | 1.062 | 0.847
x1 = 0.5513 | 1.098 | 0.873
x1 = 0.649 | 1.172 | 0.926
x1 = 0.7493 | 1.264 | 0.994
x1 = 0.8496 | 1.377 | 1.079
x1 = 0.9529 | 1.518 | 1.185
